Settings: acidic group

pKa | Structure (SMILES)
3.5 | CCC1C(=O)C(CC)C1=O (stereo not given)
2.21 | CC(C)(C)c1ccc(-c2c(O)c2=O)cc1
8.26 | NNC(=O)C(F)(F)C1(F)OC(F)(F)C(F)(F)C1(F)F (stereo not given)
3.71 | O=C(O)/C=C\c1cccc(Cl)c1
5.41 | NC(=O)NS(=O)(=O)c1ccc(N)cc1
11.4 | CNc1nc(SC)nc2[nH]ncc12
-0.01 | Cc1cc(C(=O)O)cc(C)[n+]1O
12.8 | NNC(=O)c1ccccc1N
3.76 | CC(C)(C)c1ccc(SCC(=O)O)cc1
7.32 | Cc1ccc(O)c(=O)cc1
12.1 | c1ccc(-c2nc3ccccc3[nH]2)nc1
4.45 | COC1=CC2CCC1(C(=O)O)CC2
8.79 | O=C1NC(=S)NC12CCCCC2
9.05 | CCOC(=O)c1cccc(O)c1
10.1 | C=CCc1ccc2cccnc2c1O
4.17 | CCOc1cccc(C(=O)O)c1
7.92 | Oc1ccc2nccnc2c1
13.3 | O=C([O-])CCC(=O)C=C=Cc1ccccc1
5.52 | O=C([O-])[C@@H]1CC[C@H](C(=O)O)C1
1.6 | COc1nc(C)cc(O)[nH+]1

Structure (SMILES) | pKa
CC(Cl)C(=O)O (stereo not given) | 2.88
Cc1nnn[nH]1 | 5.52
[NH3+][C@@H](Cc1c[nH]c[nH+]1)C(=O)N[C@@H](Cc1c[nH]c[nH+]1)C(=O)O | 2.25
N#CO | 3.67

Same assay, conditions: basic group

pKa | Structure (SMILES)
8.9 | Cc1ccccc1/C(=N/CCCN(C)C)c1ccc2ccccc2c1
8.2 | C#CC(CC)(CC)N(CC)C(C)C
9.36 | CC(O)CN(CC(C)O)C(C)(C)C (stereo not given)
9.9 | CNC(C(=O)[O-])C(C)C (stereo not given)
8.43 | Cn1cnc2nc(N)nc([O-])c21
2.16 | CCc1cccc(/N=N/c2ccc(N(C)C)cc2)c1
7.49 | c1cc(N2CCOCC2)c2c(N3CCOCC3)cccc2c1
10.1 | Cc1cc([O-])[n+](C)c([O-])n1
3.61 | CNc1nc(SC)nc2[nH]ncc12
2.77 | Clc1cccnc1
3.47 | NNC(=O)c1ccccc1N
2.5 | NNC(=O)[C@H](Cc1c[nH]c[nH+]1)NC(=O)OCc1ccccc1
8.53 | CCC(N)CCCl (stereo not given)
9.3 | CCCCN(CC(C)O)CC(C)O (stereo not given)
11 | CCN(CC)Cc1cc([N+](=O)[O-])ccc1[O-]
4.41 | c1ccc(-c2nc3ccccc3[nH]2)nc1
5.42 | CC[NH+](CC)CCNc1cc(Nc2ccc(Cl)cc2)nc(C)n1
9.67 | CCC(N)C(=O)[O-] (stereo not given)
-1.15 | COc1nc2ccccc2nc1OC
4.97 | Cc1ccc2c(c1)NCCN2
4.52 | C=CCc1ccc2cccnc2c1O
1.4 | Oc1ccc2nccnc2c1
2.65 | Cc1cnc(C)c(C)n1
7.24 | COc1ccc(S(=O)(=O)CCN2CCCCC2)c(OC)c1OC
6.47 | CN(C)c1ccc([N+](=O)[O-])c2c(NCCC[NH+](C)C)c3ccccc3nc12
9.3 | [O-]c1nc([O-])c2[nH]nnc2n1
3.89 | COc1cccnc1C=O

Structure (SMILES) | pKa
CN1CCCC1c1ccccc1 (stereo not given) | 8.8
NCCCCc1cccnc1 | 10.2
O=C1CC2OCC=C3C4CC5N(CCC56c5ccccc5N1C6C24)[C@H]3S(=O)(=O)[O-] (stereo not given in full) | 3.2
C[C@@H]1CCN2CC=C[C@H]12 | 10.6

From the pKa sets of Baltruschat and Czodrowski (2020)
